Measurements taken from PubChem BioAssay (NCI).
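Method: 48-hour compound exposure of cells in 96-well plates, five concentrations, linear interpolation of endpoints. GI50: concentration for 50% inhibition of growth. TGI: total growth inhibition.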

Tests used:
Test in all cases: NCI tumour cell line growth inhibition, 48 h
SF-295 CNS = tested on: SF-295 CNS
U251 CNS = tested on: U251 CNS
MDA-MB-435 = tested on: MDA-MB-435
SK-MEL-2 melanoma = tested on: SK-MEL-2 melanoma
SK-MEL-5 melanoma = tested on: SK-MEL-5 melanoma
PC-3 prostate = tested on: PC-3 prostate
HL-60(TB) leukemia = tested on: HL-60(TB) leukemia
OVCAR-4 ovarian = tested on: OVCAR-4 ovarian
UACC-62 melanoma = tested on: UACC-62 melanoma
IGROV1 ovarian = tested on: IGROV1 ovarian
SNB-75 CNS = tested on: SNB-75 CNS
CAKI-1 renal = tested on: CAKI-1 renal
SNB-19 CNS = tested on: SNB-19 CNS
SF-268 CNS = tested on: SF-268 CNS
NCI-H460 lung = tested on: NCI-H460 lung
RPMI-8226 leukemia = tested on: RPMI-8226 leukemia
MALME-3M melanoma = tested on: MALME-3M melanoma
MDA-MB-231 breast = tested on: MDA-MB-231 breast
HOP-92 NSCLC = tested on: HOP-92 NSCLC
HS 578T breast = tested on: HS 578T breast
HT29 colon = tested on: HT29 colon
ACHN renal = tested on: ACHN renal
NCI-H522 lung = tested on: NCI-H522 lung
SR leukemia = tested on: SR leukemia
SK-OV-3 ovarian = tested on: SK-OV-3 ovarian
SN12C renal = tested on: SN12C renal
UACC-257 melanoma = tested on: UACC-257 melanoma
MOLT-4 leukemia = tested on: MOLT-4 leukemia
SK-MEL-28 melanoma = tested on: SK-MEL-28 melanoma
KM12 colon = tested on: KM12 colon
A498 renal = tested on: A498 renal
OVCAR-5 ovarian = tested on: OVCAR-5 ovarian
UO-31 renal = tested on: UO-31 renal
SW-620 colon = tested on: SW-620 colon
TK-10 renal = tested on: TK-10 renal
COLO 205 colon = tested on: COLO 205 colon
SF-539 CNS = tested on: SF-539 CNS
CCRF-CEM leukemia = tested on: CCRF-CEM leukemia
A549 NSCLC = tested on: A549 NSCLC
RXF 393 renal = tested on: RXF 393 renal
NCI/ADR-RES ovarian = tested on: NCI/ADR-RES ovarian
T-47D breast = tested on: T-47D breast
EKVX NSCLC = tested on: EKVX NSCLC
HCC-2998 colon = tested on: HCC-2998 colon
BT-549 breast = tested on: BT-549 breast
MCF7 breast = tested on: MCF7 breast
OVCAR-8 ovarian = tested on: OVCAR-8 ovarian
HCT-116 colon = tested on: HCT-116 colon
M14 melanoma = tested on: M14 melanoma
HCT-15 colon = tested on: HCT-15 colon
HOP-62 NSCLC = tested on: HOP-62 NSCLC
NCI-H23 lung = tested on: NCI-H23 lung
LOX IMVI melanoma = tested on: LOX IMVI melanoma
786-0 renal = tested on: 786-0 renal
DU-145 prostate = tested on: DU-145 prostate
NCI-H226 lung = tested on: NCI-H226 lung
K-562 leukemia = tested on: K-562 leukemia

SMILES: COc1ccc(/C=N/Nc2ccnc3cc(Cl)ccc23)cc1Cl
- GI50 (SF-295 CNS): 1790 nM
- TGI (SF-295 CNS): 3360 nM
- GI50 (U251 CNS): 1740 nM
- TGI (U251 CNS): 3370 nM
- GI50 (MDA-MB-435): 1790 nM
- TGI (MDA-MB-435): 3390 nM
- GI50 (SK-MEL-2 melanoma): 1790 nM
- TGI (SK-MEL-2 melanoma): 3330 nM
- GI50 (SK-MEL-5 melanoma): 1770 nM
- TGI (SK-MEL-5 melanoma): 3210 nM
- GI50 (PC-3 prostate): 1640 nM
- TGI (PC-3 prostate): 3120 nM
- GI50 (HL-60(TB) leukemia): 1960 nM
- TGI (HL-60(TB) leukemia): 4790 nM
- GI50 (OVCAR-4 ovarian): 1830 nM
- TGI (OVCAR-4 ovarian): 3560 nM
- GI50 (UACC-62 melanoma): 1760 nM
- TGI (UACC-62 melanoma): 3270 nM
- GI50 (IGROV1 ovarian): 1910 nM
- TGI (IGROV1 ovarian): 3710 nM
- GI50 (SNB-75 CNS): 1550 nM
- TGI (SNB-75 CNS): 3060 nM
- GI50 (CAKI-1 renal): 1680 nM
- TGI (CAKI-1 renal): 3100 nM
- GI50 (SNB-19 CNS): 1930 nM
- TGI (SNB-19 CNS): 3730 nM
- GI50 (SF-268 CNS): 1900 nM
- TGI (SF-268 CNS): 3690 nM
- GI50 (NCI-H460 lung): 2040 nM
- TGI (NCI-H460 lung): 4030 nM
- GI50 (RPMI-8226 leukemia): 2200 nM
- TGI (RPMI-8226 leukemia): 5240 nM
- GI50 (MALME-3M melanoma): 1900 nM
- TGI (MALME-3M melanoma): 3540 nM
- GI50 (MDA-MB-231 breast): 1930 nM
- TGI (MDA-MB-231 breast): 3550 nM
- GI50 (HOP-92 NSCLC): 1380 nM
- TGI (HOP-92 NSCLC): 2950 nM
- GI50 (HS 578T breast): 1990 nM
- TGI (HS 578T breast): 4280 nM
- GI50 (HT29 colon): 1530 nM
- TGI (HT29 colon): 3010 nM
- GI50 (ACHN renal): 1950 nM
- TGI (ACHN renal): 3420 nM
- GI50 (NCI-H522 lung): 1690 nM
- TGI (NCI-H522 lung): 3300 nM
- GI50 (SR leukemia): 707 nM
- TGI (SR leukemia): 5510 nM
- GI50 (SK-OV-3 ovarian): 1820 nM
- TGI (SK-OV-3 ovarian): 3270 nM
- GI50 (SN12C renal): 1750 nM
- TGI (SN12C renal): 3440 nM
- GI50 (UACC-257 melanoma): 1690 nM
- TGI (UACC-257 melanoma): 3290 nM
- GI50 (MOLT-4 leukemia): 2200 nM
- TGI (MOLT-4 leukemia): 5350 nM
- GI50 (SK-MEL-28 melanoma): 1750 nM
- TGI (SK-MEL-28 melanoma): 3210 nM
- GI50 (KM12 colon): 2080 nM
- TGI (KM12 colon): 4320 nM
- GI50 (A498 renal): 1720 nM
- TGI (A498 renal): 3220 nM
- GI50 (OVCAR-5 ovarian): 1850 nM
- TGI (OVCAR-5 ovarian): 3490 nM
- GI50 (UO-31 renal): 1680 nM
- TGI (UO-31 renal): 3100 nM
- GI50 (SW-620 colon): 1900 nM
- TGI (SW-620 colon): 3760 nM
- GI50 (TK-10 renal): 1740 nM
- TGI (TK-10 renal): 3120 nM
- GI50 (COLO 205 colon): 1820 nM
- TGI (COLO 205 colon): 3370 nM
- GI50 (SF-539 CNS): 1800 nM
- TGI (SF-539 CNS): 3260 nM
- GI50 (CCRF-CEM leukemia): 2140 nM
- TGI (CCRF-CEM leukemia): 5930 nM
- GI50 (A549 NSCLC): 1770 nM
- TGI (A549 NSCLC): 3570 nM
- GI50 (RXF 393 renal): 1750 nM
- TGI (RXF 393 renal): 3210 nM

SMILES: CC[C@]12CC(C(=O)OC)=C3Nc4ccccc4[C@@]34CCN(C14)[C@@H]1c3cc4c(cc3O[C@@H]1[C@H]2O)NC1=C(C(=O)OC)C[C@@]2(CC)C3N(CC[C@@]143)C[C@H]1O[C@H]12 (some centres not stated)
- GI50 (SF-295 CNS): 317 nM
- TGI (SF-295 CNS): > 50000 nM
- GI50 (NCI/ADR-RES ovarian): 290 nM
- TGI (NCI/ADR-RES ovarian): > 50000 nM
- GI50 (U251 CNS): 738 nM
- TGI (U251 CNS): 4720 nM
- GI50 (MDA-MB-435): 370 nM
- TGI (MDA-MB-435): 8770 nM
- GI50 (SK-MEL-2 melanoma): 537 nM
- TGI (SK-MEL-2 melanoma): 5040 nM
- GI50 (SK-MEL-5 melanoma): 583 nM
- TGI (SK-MEL-5 melanoma): 1320 nM
- GI50 (T-47D breast): 616 nM
- TGI (T-47D breast): > 50000 nM
- GI50 (PC-3 prostate): 403 nM
- TGI (PC-3 prostate): > 50000 nM
- GI50 (HL-60(TB) leukemia): 86.2 nM
- TGI (HL-60(TB) leukemia): > 50000 nM
- GI50 (EKVX NSCLC): 600 nM
- TGI (EKVX NSCLC): > 50000 nM
- GI50 (HCC-2998 colon): 492 nM
- TGI (HCC-2998 colon): 1700 nM
- GI50 (BT-549 breast): 889 nM
- TGI (BT-549 breast): 8260 nM
- GI50 (MCF7 breast): 109 nM
- TGI (MCF7 breast): > 50000 nM
- GI50 (OVCAR-4 ovarian): 548 nM
- TGI (OVCAR-4 ovarian): > 50000 nM
- GI50 (UACC-62 melanoma): 89.5 nM
- TGI (UACC-62 melanoma): 1180 nM
- GI50 (IGROV1 ovarian): 349 nM
- TGI (IGROV1 ovarian): > 50000 nM
- GI50 (SNB-75 CNS): 97.2 nM
- GI50 (CAKI-1 renal): 122 nM
- TGI (CAKI-1 renal): > 20400 nM
- GI50 (SNB-19 CNS): 443 nM
- TGI (SNB-19 CNS): > 50000 nM
- GI50 (SF-268 CNS): 1270 nM
- TGI (SF-268 CNS): > 50000 nM
- GI50 (NCI-H460 lung): 812 nM
- TGI (NCI-H460 lung): > 30700 nM
- GI50 (RPMI-8226 leukemia): 185 nM
- TGI (RPMI-8226 leukemia): 1440 nM
- GI50 (MALME-3M melanoma): 504 nM
- TGI (MALME-3M melanoma): 21000 nM
- GI50 (OVCAR-8 ovarian): 480 nM
- TGI (OVCAR-8 ovarian): > 50000 nM
- GI50 (MDA-MB-231 breast): 311 nM
- TGI (MDA-MB-231 breast): > 50000 nM
- GI50 (HOP-92 NSCLC): 134 nM
- TGI (HOP-92 NSCLC): 2070 nM
- GI50 (HS 578T breast): 337 nM
- TGI (HS 578T breast): > 50000 nM
- GI50 (HCT-116 colon): 367 nM
- TGI (HCT-116 colon): 2840 nM
- GI50 (HT29 colon): 226 nM
- TGI (HT29 colon): > 25400 nM
- GI50 (ACHN renal): 320 nM
- TGI (ACHN renal): 5650 nM
- GI50 (M14 melanoma): 423 nM
- TGI (M14 melanoma): > 20600 nM
- GI50 (HCT-15 colon): 160 nM
- TGI (HCT-15 colon): 6400 nM
- GI50 (NCI-H522 lung): 224 nM
- TGI (NCI-H522 lung): 2930 nM
- GI50 (SR leukemia): 183 nM
- TGI (SR leukemia): > 50000 nM
- GI50 (SK-OV-3 ovarian): 296 nM
- GI50 (SN12C renal): 641 nM
- TGI (SN12C renal): > 50000 nM
- GI50 (UACC-257 melanoma): 363 nM
- TGI (UACC-257 melanoma): 10200 nM
- GI50 (MOLT-4 leukemia): 912 nM
- TGI (MOLT-4 leukemia): > 50000 nM
- GI50 (SK-MEL-28 melanoma): 974 nM
- TGI (SK-MEL-28 melanoma): > 50000 nM
- GI50 (HOP-62 NSCLC): 201 nM
- TGI (HOP-62 NSCLC): > 50000 nM
- GI50 (KM12 colon): 636 nM
- TGI (KM12 colon): > 50000 nM
- GI50 (A498 renal): 193 nM
- TGI (A498 renal): 1160 nM
- GI50 (OVCAR-5 ovarian): 614 nM
- TGI (OVCAR-5 ovarian): > 50000 nM
- GI50 (UO-31 renal): 148 nM
- TGI (UO-31 renal): > 50000 nM
- GI50 (NCI-H23 lung): 632 nM
- TGI (NCI-H23 lung): > 36200 nM
- GI50 (LOX IMVI melanoma): 167 nM
- TGI (LOX IMVI melanoma): 721 nM
- GI50 (SW-620 colon): 840 nM
- TGI (SW-620 colon): > 20700 nM
- GI50 (TK-10 renal): 130 nM
- TGI (TK-10 renal): 3060 nM
- GI50 (COLO 205 colon): 278 nM
- TGI (COLO 205 colon): 1010 nM
- GI50 (786-0 renal): 274 nM
- TGI (786-0 renal): > 50000 nM
- GI50 (SF-539 CNS): 417 nM
- TGI (SF-539 CNS): > 50000 nM
- GI50 (CCRF-CEM leukemia): 590 nM
- TGI (CCRF-CEM leukemia): > 50000 nM
- GI50 (DU-145 prostate): 1850 nM
- TGI (DU-145 prostate): > 50000 nM
- GI50 (A549 NSCLC): 510 nM
- TGI (A549 NSCLC): > 44400 nM
- GI50 (NCI-H226 lung): 509 nM
- TGI (NCI-H226 lung): > 11300 nM
- GI50 (RXF 393 renal): 483 nM
- TGI (RXF 393 renal): 1900 nM
- GI50 (K-562 leukemia): 220 nM
- TGI (K-562 leukemia): > 50000 nM
